In US12029715B2, “Precursor compounds for providing retinoids of the vitamin A5 pathway and uses thereof” (UNIVERSITY OF DEBRECEN, priority 2015, dated 2024):
Entries after “also recorded” stand apart in the source; their conditions may differ.

Experiments:
[1] = tested on: human oligodendrocytes cell cultures; test: Metabolic conversion in human oligodendrocytes cell culture (HPLC-MS); assay type: in vitro ADME; settings: 10^−6M; for 9CDHRA levels in cells after treatment (metabolism / accumulation): n=3
Procedure: (§1) In a slight variant of the method, after reaching confluency of 80% cells were treated with 9CDHROL, 9CDH-retinyl ester (acetate, 9CDHROL-ES), 9CDHRA, 9CDH-retinoyl ester, (ethyl ester, 9CDHRA-ES), ATROL, 9CDHBC, 9CBC and ATBC at a concentration of 10^−6 M or ethanol at corresponding concentration was used as control vehicle treatment. Cells were harvested 18 hours later, centrifuged, weighted, frozen in liquid nitrogen and stored at −80° C. until analyses.
(§2) High performance liquid chromatography mass spectrometry (LC-MS) was carried out as described in Example 4.
9CDHRA levels including standard deviation in human oligodendrocytes cultures were assessed using HPLC-MS analysis after control treatment using ethanol (CTRL), as well as ATROL treatment (ATROL), 9CBC treatments (9CBC), ATBC treatments (ATBC), 9CDHBC treatment (9CDHBC), 9CDHROL treatments (9CDHROL), 9CDHROL-ester treatments (9CDHROL-ES), 9CDHRA treatments (9CDHRA) or 9CDHRA-ester treatments (9CDHRA-ES), each with 10^−6M concentration and n=3 (FIG. 14D).

[2] = tested on: oligodendrocytes cell line 158N; test: Metabolic conversion in mouse oligodendrocytes cell culture (LC-MS); assay type: in vitro ADME; settings: for 9CDHRA levels in cells after treatment: 10^−5M for 18 h; for 9CDHROL levels in cells after treatment: 10^−6 M, 18 hours; for conversion to 9CDHRA: data not shown; for 9CBC in cells after treatment: 411 nm detection, retention time 26.1 min; for 9CDHBC peak in cells after treatment: UV detection at 366 nm, retention time 25.1 min
Procedure: Normal immortalized oligodendrocytes cell line 158N was cultured as previously reported (Feutz et al., 2001). Expediently, cells were cultured in supplemented with 5% calf serum (Invitrogen, France). When cells attained 70% of confluency they were treated with 10^−2 M ethanol solution of one of the following compounds: 9CDHROL, 9CDHROL-acetate, 9CDHRA-ethyl ester. 9CDHRA and ethanol as controls, vehicle treatment. 18 h after treatment cells were collected in amber Eppendorf tubes and stored at −80° C. until analyses. Treatments and cell collection were carried out in light limited conditions to avoid photolysis of retinoids.
as §1, §2

[3] = tested on: differentiating monocyte-derived human dendritic cells; test: DNA microarray in differentiating monocyte-derived dendritic cells; assay type: cell-based; settings: for expression of genes that are direct targets of RXR permissive heterodimers (LXR-RXR, PPAR-RXR) and RAR-RXR: 9CDHRA 10 μM, 9CRA 1 μM, GW3965 1 μM, RSG 1 μM, GW1516 1 μM, AM580 100 nM
Procedure: The generation and transcriptional analysis of differentiating DCs were performed as described previously [Szeles L et al. 2010]. Microarray data were deposited into the Gene Expression Omnibus database under accession no. GSE48573.
The generation and analysis of differentiating DCs were performed as described previously [Szeles L et al. 2010] with minor modifications. Briefly, human monocytes were isolated from healthy volunteer's buffy coat, obtained with a Regional Ethical Board permit from the Regional Blood Bank and isolated by Ficoll gradient centrifugation followed by immunomagnetic cell separation, and were cultured in the presence of GM-CSF and IL-4. Differentiating DCs were stimulated 18 h after […] by various agonists for 12 h. The ligands were used in the following concentrations: 10 μM (R)-9CDHRA, 10 μM (S)-9CDHRA, 1 μM 9cisRA, 100 nM LG100268, 1 μM GW3965, 1 μM Rosiglitazone (RSG), 1 μM GW1516, 100 nM AM580. Experiments were performed in biological triplicates. Samples were processed and hybridized to Human Genome U133 Plus 2.0 Arrays. Data were analysed using to GeneSpring 12.6.1 software. In detail, normalization was performed using RMA summarization algorithm. […] Microarray data were deposited into the Gene Expression Omnibus database under accession no. GSE48573.

Rbp1−/− and Rxrγ−/− mice = test: Y-maze spontaneous alternation; assay type: in vivo, mouse; settings: 5-6 hours prior to testing
Procedure: The Y-maze apparatus and the procedure were as previously described (Wietrzych et al., 2005). Briefly, each mouse was placed at the end of one arm and allowed to explore freely the apparatus for 5 min, with the experimenter out of the animal's sight. Spontaneous alternation performance (SAP) was assessed visually by scoring the pattern of entries into each arm and expressed as a percentage of total number of entries, discounting the first two visits. Total entries were scored as an index of ambulatory activity in the Y-maze, but none of tested mice had to be excluded due to low locomotor performance (score below 9 entries).
(§3) Vehicle treatments consisted of 3% ethanol and 3% DMSO solution in sunflower oil. Treatments were administered by intraperitoneal injections at volume/weight ratio 3 ml/kg between 8-10 am and 5-6 h before the test as previously validated (Wietrzych-Schindler M, 2011).

[4] = tested on: Rbp1−/−, Rxrγ−/− and WT mice; test: Forced swim test after acute treatment; assay type: in vivo, mouse; settings: Rbp1−/− mice, acute i.p. treatment 5-6 h before the test
Procedure: (§4) The forced swim paradigm was carried out between 1 pm and 4 pm in a 3-litre glass beaker half-filled with water at 22-23° C. (the water depth was 17 cm). All mice were tested only once in this task. To this end, each mouse was lowered gently into the water and the time of immobility was scored during a 6-minute testing period. The mouse was judged immobile when it floated in an upright position and made only small movements to keep its head above the water. After 6 min, the mouse was taken out of the water, left to dry under a red light lamp and returned to its home cage. The immobility scores of each animal were used as an index of despair behavior.
as §3
as §4, with “paradigm (Dalvi and Lucki, 1999)” for “paradigm”, “2-litre” for “3-litre”

[5] = Rbp1−/− mice, ATRA 5 mg/kg, UVI2108 1 mg/kg, MA 5 mg/kg, DHA 1 mg/kg, TTNPB 5 mg/kg

CC(=O)OCC[C@@H](C)/C=C/C=C(C)\C=C\C1=C(C)CCCC1(C)C (stereo in doubt) [9CDHROL-ES, (R)-9-cis-13,14-dihydroretinyl acetate]
production of 9CDHRA by the ester form compared with 9CDHROL and 9CDHRA, respectively [1]: higher production
9CDHRA levels in cells after treatment [2]: strong increase
9CDHROL levels in cells after treatment [2]: excellent/strongly
conversion to 9CDHRA [2]: excellent precursor

CC1=C(/C=C/C(C)=C\C=C\C(C)=C\C=C\C=C(C)\C=C\C=C(C)\C=C\C2=C(C)CCCC2(C)C)C(C)(C)CCC1 [9CBC, 9-cis-β,β-Carotene]
9CDHRA levels in cells after treatment (metabolism / accumulation) [1]: not converted to 9CDHRA
ATROL levels in cells after treatment ([2]; 10^−6M): a low conversion or induced increase
9CDHROL levels in cells after treatment [2]: no or just a weak increase; also recorded: weak significant increase
9CBC in cells after treatment [2]: could detect 9CBC
9CDHBC peak in cells after treatment [2]: higher peak was observed
conversion to 9CDHRA [2]: not converted to 9CDHRA

CCOC(=O)C[C@@H](C)/C=C/C=C(C)\C=C\C1=C(C)CCCC1(C)C [9CDHRA-ES, Ethyl (9Z,13R)-13,14-Dihydroretinoate]
production of 9CDHRA by the ester form compared with 9CDHROL and 9CDHRA, respectively [1]: higher production
9CDHRA levels in cells after treatment (metabolism / accumulation) [1]: strong accumulation
9CDHRA levels in cells after treatment [2]: very strong increase

CC1=C(/C=C/C(C)=C\C=C\C(C)=C\C(=O)O)C(C)(C)CCC1 [9CRA, 9-cis-retinoic acid, reference compound]
expression of genes induced by AM580 (RAR-RXR target genes) [3]: also induced
number of transcripts regulated ([3]; 10 μM (R)-9CDHRA, 1 μM 9CRA, 12 h, FC>2): 450
expression of genes that are direct targets of RXR permissive heterodimers (LXR-RXR, PPAR-RXR) and RAR-RXR ([3]; LG268 100 nM): induce the expression of many genes

CC1(C)CCC(C)(C)c2cc(C(=O)Nc3ccc(C(=O)O)cc3)ccc21 [AM580, reference compound]
expression of genes that are direct targets of RXR permissive heterodimers (LXR-RXR, PPAR-RXR) and RAR-RXR ([3]; LG268 100 nM): also induced

CC1=C(/C=C/C(C)=C/C=C/C(C)=C/C=C/C=C(C)/C=C/C=C(C)/C=C/C2=C(C)CCCC2(C)C)C(C)(C)CCC1 [ATBC, all-trans-β,β-carotene, reference compound]
9CDHRA levels in cells after treatment (metabolism / accumulation) [1]: not converted to 9CDHRA
9CDHROL levels in cells after treatment [2]: did not display any increase; also recorded: did not result in any increase
9CBC in cells after treatment [2]: no 9CBC could be detected
9CDHBC peak in cells after treatment [2]: not be conclusively detected
conversion to 9CDHRA [2]: not converted to 9CDHRA
ATBC level in cells after ATBC-treatment ([2]; detectable at 411 nm, eluting at 27.2 min): present in very high levels

Cc1cc(SCc2sc(-c3ccc(C(F)(F)F)cc3)nc2C)ccc1OCC(=O)O [GW1516, reference compound]
expression of genes that are direct targets of RXR permissive heterodimers (LXR-RXR, PPAR-RXR) and RAR-RXR ([3]; LG268 100 nM): also induced

O=C(O)Cc1cccc(OCCCN(Cc2cccc(C(F)(F)F)c2Cl)CC(c2ccccc2)c2ccccc2)c1 [GW3965, reference compound]
expression of genes that are direct targets of RXR permissive heterodimers (LXR-RXR, PPAR-RXR) and RAR-RXR ([3]; LG268 100 nM): also induced

Cc1cc2c(cc1C1(c3ccc(C(=O)O)cn3)CC1)C(C)(C)CCC2(C)C [LG268, reference compound]
expression of genes that are direct targets of RXR permissive heterodimers (LXR-RXR, PPAR-RXR) and RAR-RXR ([3]; LG268 100 nM): induce the expression of many genes
transcripts of the set common to (R)-9CDHRA and 9CRA also regulated by LG268 ([3]; LG268 100 nM): 61

C/C(=C\c1ccc(C(=O)O)cc1)c1ccc2c(c1)C(C)(C)CCC2(C)C [TTNPB]
working memory in spontaneous alternation in the Y-maze (Rbp1−/− and Rxrγ−/− mice; [5]): not
immobility (despair) in the forced swim test [4]: did not display such effects

COC(C)(C)CCCC(C)C/C=C/C(C)=C/C(=O)O (stereo not shown) [methoprene acid]
working memory in spontaneous alternation in the Y-maze (Rbp1−/− and Rxrγ−/− mice; [5]): pro-mnemonic effects
working memory in spontaneous alternation in the Y-maze (Rbp1−/− and Rxrγ−/− mice; Rbp1−/− mice, ATRA 5 mg/kg, UVI2108 1 mg/kg, MA 5 mg/kg, DHA 1 mg/kg, TTNPB 5 mg/kg, listed as MA): normalised
working memory in spontaneous alternation in the Y-maze (Rbp1−/− and Rxrγ−/− mice; Rxrγ−/− mice, same doses): not
immobility (despair) in the forced swim test [4]: normalized increased despair
immobility (despair) in the forced swim test ([4]; listed as MA): normalised
